# Experimental data taken from PubChem BioAssay AID588568 (The Scripps Research Institute Molecular Screening Center, 2011).
# Values joined by “and” are separate entries in the source; they are usually repeats but may differ in a detail not shown here. Equal entries are not always repeated. Active and inactive are the calls of the source. No rule for the calls is given here.
# Molecular target: Melanin-concentrating hormone receptor 1 (Homo sapiens) (UniProt Q99705)
# Experiment: antagonist activity at MCH receptor 1 – cell-based, fluorescence, set 4, counter-screen for GPR7 antagonist project, dose response (AID 588568)
# Conditions: MCHR1-expressing cells, fluorescence antagonist assay; run 1
row,Structure (SMILES),IC50
1,O=c1c(Oc2ccc(OC(F)(F)F)cc2)c(Cl)cnn1C1c2ccccc2-c2ccccc21,> 20 µM (inactive)
2,COc1ccc(Oc2c(Cl)cnn(Cc3ccc(C4CCCCC4)c4ccccc34)c2=O)cc1,> 20 µM (inactive)
3,COc1ccc(Oc2c(Cl)c(-c3ccsc3)nn(Cc3ccccc3C)c2=O)cc1,8.04 µM
4,COc1ccc(Oc2c(-c3ccccc3C)c(-c3ccccc3C)nn(Cc3ccccc3C)c2=O)cc1,inactive
5,O=C(c1cnn(-c2ccc(Cl)cc2)c1C(F)(F)F)N1CCN(c2ccc([N+](=O)[O-])cc2)CC1,1.64 µM
6,COc1ccc(Oc2c(/C=N\O)cnn(Cc3cccc4ccccc34)c2=O)cc1,inactive
7,O=Cc1ccc(Oc2c(Cl)cnn(Cc3cccc4ccccc34)c2=O)cc1,7.33 µM
8,COc1ccc(Oc2c(-c3ccc(C)cc3)c(-c3ccc(C)cc3)nn(Cc3ccccc3C)c2=O)cc1,> 20 µM (inactive)
9,COc1ccc(Oc2c(Cl)cnn(CCc3cccc4ccccc34)c2=O)cc1,inactive
10,COc1ccc(Oc2c(Cl)cnn(Cc3c(C)cc(C)cc3C)c2=O)cc1,7.5 µM
11,COc1ccc(Oc2c(Cl)c(OC)nn(-c3cccc(C)c3)c2=O)cc1,8.55 µM
12,COc1ccccc1CNC(=O)c1cnn(-c2ccc(Cl)cc2)c1C(F)(F)F,7.23 µM
13,Cc1ccc(CN2CCCCC2C(=O)N2CCN(c3ccc([N+](=O)[O-])cc3)CC2)cc1C (stereo unspecified),3.3 µM
14,CCOc1ccc(Oc2c(NC(=O)OC(C)(C)C)cnn(Cc3cccc4ccccc34)c2=O)cc1,> 20 µM (inactive)
15,CCCCCCCn1ncc(Cl)c(Oc2ccc(OC)cc2)c1=O,inactive
16,O=c1c(Oc2ccc(Oc3ccccc3)cc2)c(Cl)cnn1Cc1cccc2ccccc12,> 20 µM (inactive)
17,Cc1cc(CN2CCCCC2C(=O)N2CCN(c3ccc([N+](=O)[O-])cc3)CC2)ccc1Cl (stereo unspecified),1.42 µM
18,O=c1c(Oc2ccc3occc3c2)c(Cl)cnn1Cc1cccc2ccccc12,> 20 µM (inactive)
19,COc1ccc(Oc2c(Cl)cnn(Cc3ccc(-c4ccccc4)cc3)c2=O)cc1,> 20 µM (inactive)
20,COc1ccc(Oc2c(C#N)cnn(Cc3ccccc3C)c2=O)cc1,> 20 µM (inactive)
21,COc1ccc(Oc2cnn(Cc3cccc4ccccc34)c(=O)c2Br)cc1,> 20 µM (inactive)
22,COc1ccc(Oc2c(Cl)cnn(C(c3ccccc3)c3cccc4ccccc34)c2=O)cc1 (stereo unspecified),> 20 µM (inactive)
23,COc1ccc(Oc2c(Cl)cnn(CC3CCCC3)c2=O)cc1,inactive
24,COc1ccc(Oc2c(Cl)c(C)nn(Cc3ccccc3C)c2=O)cc1,3.89 µM

row,Structure (SMILES),IC50
1,COCn1ncc(Cl)c(Oc2ccc(OC)cc2)c1=O,> 20 µM (inactive)
2,CCOc1ccc(Cn2ncc(Cl)c(Oc3ccc(OC)cc3)c2=O)cc1C#N,9.37 µM
3,COc1cccc(Oc2c(Cl)cnn(Cc3cccc4ccccc34)c2=O)c1,8.9 µM
4,COc1ccc(Oc2c(Cl)cnn(C(C(=O)OCCC3CCCC3)c3ccccc3Cl)c2=O)cc1 (stereo unspecified),> 20 µM (inactive)
5,O=c1c(Oc2ccc(OC(F)(F)F)cc2)c(Cl)cnn1Cc1cccc2ccccc12,inactive
6,COc1ccc(Oc2c(C)cnn(Cc3cccc4ccccc34)c2=O)cc1,5.41 µM
7,COc1ccc(Oc2c(Cl)c(-c3ccc(C)cc3)nn(Cc3ccccc3C)c2=O)cc1,6.43 µM
8,COc1ccc(Oc2c(Br)nn(-c3cccc(C)c3)c(=O)c2Oc2ccc(OC)cc2)cc1,1.66 µM
9,COc1ccc(Oc2c(Cl)cnn(Cc3ccc4c(c3)OCO4)c2=O)cc1,7.57 µM
10,CCc1ccc(Oc2c(Cl)cnn(C3c4ccccc4-c4ccccc43)c2=O)cc1,> 20 µM (inactive)
11,CCOc1ccc(Oc2ccnn(Cc3cccc4ccccc34)c2=O)cc1,4.6 µM
12,COc1ccc(Oc2c(C)c(C)nn(Cc3ccccc3C)c2=O)cc1,7.31 µM
13,Cc1ccccc1Cn1ncc(Oc2ccc(CO)cc2)c(Cl)c1=O,6.54 µM
14,COc1ccc(Oc2c(Cl)c(Br)nn(Cc3ccccc3C)c2=O)cc1,1.79 µM
15,Cc1cccc(Cn2ncc(Oc3ccc(CO)cc3)c(Cl)c2=O)c1,5.16 µM
16,COc1ccc(Oc2c(Cl)c(-c3ccc(OC)cc3)nn(Cc3ccccc3C)c2=O)cc1,> 20 µM (inactive)
17,CCCC(=O)OCC(c1cccc2ccccc12)n1ncc(Cl)c(Oc2ccc(OC)cc2)c1=O (stereo unspecified),> 20 µM (inactive)
18,Cc1cc(C)cc(-n2nc(C#N)c(=O)[nH]c2=O)c1,> 20 µM (inactive)
19,COc1ccc(Oc2c(Cl)cnn(CC3CCCCC3)c2=O)cc1,inactive
20,O=c1c(Oc2ccc(CCl)cc2)c(Cl)cnn1Cc1cccc2ccccc12,7.92 µM
21,COc1ccc(Nc2ccnn(Cc3cccc4ccccc34)c2=O)cc1,> 20 µM (inactive)
22,O=C(C1CCCN1Cc1ccc(Cl)c(Cl)c1)N1CCN(c2ccc([N+](=O)[O-])cc2)CC1 (stereo unspecified),2.13 µM
23,COc1ccc(Oc2c(Cl)cnn(C(COC(C)=O)c3cccc4ccccc34)c2=O)cc1 (stereo unspecified),> 20 µM (inactive)
24,COc1ccc(Oc2c(OC)nn(-c3cccc(C)c3)c(=O)c2Oc2ccc(OC)cc2)cc1,inactive

# The remaining lines, values ahead:
row,IC50,Structure (SMILES)
1,2.25 µM,Cc1cc(C)cc(-n2ncc(Cl)c(Oc3ccc(CO)cc3)c2=O)c1
2,> 20 µM (inactive),CN(C)Cc1ccc(Oc2c(Cl)cnn(Cc3cccc4ccccc34)c2=O)cc1
3,6.75 µM,O=c1c(Oc2ccc(CO)cc2)c(Cl)cnn1Cc1cccc2ccccc12
4,5.1 µM,COc1ccc(Oc2c(Cl)cnn(Cc3ccc(C)c(C)c3)c2=O)cc1
5,4.73 µM,CC(C)c1ccc(-n2ncc(Cl)c(Oc3ccc(CO)cc3)c2=O)cc1
6,2.23 µM,O=c1c(Oc2ccc(CO)cc2)c(Cl)cnn1Cc1ccc2ccccc2c1
7,9.05 µM,C=Cc1ccc(Cn2ncc(Cl)c(Oc3ccc(OC)cc3)c2=O)cc1
8,1.45 µM,COc1ccc(Oc2c(Cl)cnn(Cc3ccc(Cl)cc3Cl)c2=O)cc1
9,6.4 µM,COc1ccc(Oc2c(Cl)cnn(-c3ccc(Br)cc3)c2=O)cc1
10,4.92 µM,Cc1ccccc1Cn1ncc(Cl)c(Oc2ccc(CO)cc2)c1=O
11,inactive,COc1ccc(Cn2ncc(Cl)c(Oc3ccc(OC)cc3)c2=O)cc1
12,inactive,COc1ccc(Oc2c(Cl)cnn(Cc3ccc(C)c4ccccc34)c2=O)cc1
13,inactive,COc1ccc(Oc2c(Cl)cnn(C(CO)c3ccccc3)c2=O)cc1 (stereo unspecified)
14,4.16 µM,COc1ccc(Oc2c(Cl)cnn(Cc3ccc(F)cc3Cl)c2=O)cc1
15,> 11.5 µM (inactive),Cc1cccc(Cn2ncc(Cl)c(Oc3ccc(CO)cc3)c2=O)c1
16,> 20 µM (inactive),COc1ccc(Oc2c(Cl)cnn(Cc3ccc(C(C)C)cc3)c2=O)cc1
17,7.26 µM and 4.63 µM,COc1ccc(Oc2c(Cl)cnn(-c3ccc(-c4ccccc4)cc3)c2=O)cc1
18,> 11.5 µM (inactive),CCN(CC)C(=O)C(c1ccccc1Cl)n1ncc(Cl)c(Oc2ccc(OC)cc2)c1=O (stereo unspecified)
19,inactive,COc1ccc(Oc2c(C#N)cnn(-c3ccc(Br)cc3)c2=O)cc1
20,> 20 µM (inactive),COc1ccc(Oc2c(Cl)cnn(C(c3ccccc3)c3c(C)noc3C)c2=O)cc1 (stereo unspecified)
21,inactive,COc1ccc(Oc2c(Cl)cnn(-c3ccc(OC)cc3)c2=O)cc1
22,4.7 µM,COc1ccc(Oc2c(Cl)cnn(Cc3cccc(C)c3)c2=O)cc1
23,> 20 µM (inactive),CC(C)c1ccc(-n2ncc(Cl)c(Oc3ccc(O)cc3)c2=O)cc1
24,> 20 µM (inactive),COC(=O)c1ccc(Oc2c(Cl)cnn(Cc3cccc4ccccc34)c2=O)cc1
25,> 20 µM (inactive),COc1ccc(Oc2c(Cl)cnn(C(CCl)c3cccc4ccccc34)c2=O)cc1 (stereo unspecified)
26,1.78 µM,COc1ccc(Oc2c(Cl)cnn(Cc3ccc(C(F)(F)F)cc3)c2=O)cc1

row,IC50,Structure (SMILES)
1,inactive,COc1ccc(Oc2c(Cl)cnn(Cc3ccc(Cl)c(C)c3)c2=O)cc1
2,8.91 µM,COc1ccc(Oc2c(Cl)cnn(-c3ccc(C)cc3C)c2=O)cc1
3,4.29 µM,COc1ccc(Oc2c(Cl)cnn(Cc3cc(Cl)ccc3Cl)c2=O)cc1
4,> 11.5 µM (inactive),COc1ccc(Oc2c(Cl)cnn(C(C(=O)OC(C)C)c3ccccc3Cl)c2=O)cc1 (stereo unspecified)
5,0.438 µM,COc1ccc(Oc2c(Cl)cnn(-c3ccc4ccccc4c3)c2=O)cc1
6,> 20 µM (inactive),COc1ccc(Oc2c(Cl)cnn(C3=Nc4ccccc4Sc4ccccc43)c2=O)cc1
7,2.41 µM,CCOc1ccc(Oc2c(Cl)cnn(-c3cc(C)cc(C)c3)c2=O)cc1
8,2.79 µM,COc1ccc(Oc2ccn(-c3ccc(C)cc3)c(=O)c2Cl)cc1
9,5.54 µM,COc1ccc(Oc2c(Cl)cnn(Cc3ccc(OC(C)C)c(C#N)c3)c2=O)cc1
10,> 20 µM (inactive),O=C(O)c1ccc(Oc2c(Cl)cnn(Cc3cccc4ccccc34)c2=O)cc1
11,> 20 µM (inactive),Cc1ccc(-n2ncc(Cl)c(Oc3ccc(O)cc3)c2=O)cc1
12,inactive,COc1ccc(Oc2c(Cl)cnn(-c3ccc(Cl)cc3)c2=O)cc1
13,8.03 µM,Cc1cc(C)cc(-n2ncc(Cl)c(Oc3ccc(-c4ccccc4)cc3)c2=O)c1
14,5.13 µM,COc1ccc(Oc2c(Cl)cnn(-c3ccc(C4=CCCCC4)cc3)c2=O)cc1
15,9.05 µM,COc1ccc(Oc2c(Cl)cnn(C(CO)c3cccc4ccccc34)c2=O)cc1 (stereo unspecified)
16,9.78 µM,CCCCCc1ccc(-n2ncc(Cl)c(Oc3ccc(OC)cc3)c2=O)cc1
17,> 20 µM (inactive),COc1ccc(Oc2c(Cl)cnn(-c3ccc(-c4ccc(C)cc4)cc3)c2=O)cc1
18,> 20 µM (inactive),COc1cccc(Oc2c(Cl)cnn(-c3cc(C)cc(C)c3)c2=O)c1
19,2.24 µM,Cc1cc(C)cc(-n2ncc(Cl)c(Oc3ccc(Oc4ccccc4)cc3)c2=O)c1
20,3.2 µM,COc1ccc(Oc2c(Cl)cnn(Cc3ccc(Cl)cc3)c2=O)cc1
21,7.65 µM,COc1ccc(Oc2c(Cl)cnn(Cc3c(Cl)cccc3Cl)c2=O)cc1
22,8.08 µM,CC(C)c1ccc(Oc2c(Cl)cnn(Cc3cccc4ccccc34)c2=O)cc1
23,> 20 µM (inactive),COCc1ccc(Oc2c(Cl)cnn(Cc3cccc4ccccc34)c2=O)cc1
24,3.26 µM,CCOC(=O)C(c1ccccc1Cl)n1ncc(Cl)c(Oc2ccc(OC)cc2)c1=O (stereo unspecified)
25,2.92 µM,COc1ccc(Oc2c(Cl)cnn(-c3cccc(Br)c3)c2=O)cc1

# Same assay, conditions: MCHR1-expressing cells, fluorescence antagonist assay; run 1; at 20 µM (top of the series)
row,inhibition,Structure (SMILES)
1,inactive,COc1ccc(Oc2c(Cl)cnn(CC3CCC3)c2=O)cc1
2,inactive,CCOc1ccc(Oc2c(N3CCCCC3)cnn(Cc3cccc4ccccc34)c2=O)cc1
